Reference: article PMC10294390 (BMC Complementary Medicine and Therapies, 2023)
One block for each compound: values may come before it.

Experiments:
[1] = tested on: CRL1554 normal human fibroblast cells; experiment: MTT assay, cytotoxicity of PPCs on normal fibroblasts; details: PPCs 20-160 µM, 72 h
Method: The cytotoxicity of a panel of 14 PPCs (Kmf, Cur, Que, Rsv, HHG, Hsp, BetA, IC3, Cmr, Sul, Irt, Lyc, Sil, and Snn) on CRL1554 normal human fibroblast cells was determined using the MTT assay [16]. CRL1554 cells were seeded (27 × 10^3 cells/well) into 96-well flat-bottomed plates and incubated at 37 °C for 18 h. Subsequently, the medium was removed, and the cells were washed with Hanks balanced salt solution (HBSS; 100 µl/well), and treated with various concentrations of PPCs (20, 40, 60, 80, 100, 120, 140 and 160 µM) for 72 h. The cells were then washed twice with HBSS, and 100 μl medium with 20 µl (5 mg/ml) MTT solution in PBS was added to each well and incubated at 37 °C for 4 h. The supernatants were aspirated, and 200 μL of dimethyl sulfoxide (DMSO) was added to dissolve the formazan crystals. Finally, the absorbance was measured using a multiwell spectrophotometer at two wavelengths (λ, 492 and 570 nm).

[2] = tested on: SW1116 human colon cancer cell line; experiment: MTT assay, single and schedule-dependent combined treatment; format: cell-based; details: Homo sapiens, SW 1116, PPC alone, MTT, Fig. 1B
Method: (§1) The plates were washed, and PPCs [Cur, Kmf, or Que (60 or 120 µM), or Rsv (40 or 80 µM)] were added, followed by incubation at 37 °C for 48 h. For inverted sequential treatment, PPC [Cur, Kmf, or Que (60 or 120 µM), or Rsv (40 or 80 µM)] was added and incubated at 37 °C for 24 h. […] Cell growth was monitored as previously described.

[3] = tested on: SW837 human rectum cancer cell line; experiment: as above; format: cell-based; details: PPC alone, MTT, Fig. 1C; for cytotoxicity mean: SW837; for IC50: Homo sapiens, SW837, SW837, read-out: IC50
Method: as §1

[4] = tested on: SW1116 cells; experiment: Cell cycle analysis by flow cytometry (PI); format: cell-based, human; details: 72 h
Method: (§2) The cells were subsequently processed using a DNA-prep kit and DNA-Prep EPICS workstation. The cells were treated with a non-ionic detergent to permeabilize the cell membrane, followed by propidium iodide (PI) and RNase, and incubated at 15–20 °C for 15 min. The cells were resuspended in binding buffer at a concentration of 3–10 × 10^6 cells/ml for optimal staining. Fluorescence was measured using a flow cytometer (Beckman Coulter, Inc.), and the percentage of cells in the different phases of the cell cycle was calculated using the Phoenix statistical software package, Advanced DNA cell cycle software (Phoenix Flow System).

[5] = tested on: SW1116 cells; experiment: Annexin V-FITC/PI double staining, flow cytometry; format: cell-based, human; details: SW1116, 72 h
Method: (§3) The levels of cell surface phosphatidylserine were determined to monitor the type of cell death and the kinetics of apoptosis. The CRC cell lines SW1116 and SW837 were seeded (2.5 × 10^5 cells/well) into 24-well plates and incubated in a non-CO2 incubator at 37 °C for 18 h. […] The cells were subsequently washed twice with HBSS and harvested using trypsin. Finally, the cells were double-stained using the Annexin V-FITC-Flous staining kit, according to the manufacturer’s instructions (Roche Diagnostic GmbH). Annexin V-Flous labelling solution containing Annexin V-FITC and PI (100 µl) was added to both the treated and control cell groups and incubated at 15–20 °C for 15 min. The cells (1 × 10^6 cells/ml) were then resuspended in binding buffer, and fluorescence was monitored using flow cytometry (FC500; Beckman Coulter, Inc.).

[6] = tested on: SW1116 cells; experiment: DNA fragmentation assay; format: cell-based, human; details: Sora 5 µM, PPC 200 and 400 µM, simultaneous combinations, 72 h, Fig. 8A, C
Method: (§4) Induction of apoptosis was monitored using a DNA fragmentation assay following the manufacturer’s instructions (Apoptotic DNA Ladder Detection kit; Abcam). […] Cells were subsequently incubated at 37 °C for 72 h. The cells were then trypsinized, harvested, washed, pelleted, and lysed using Tris–EDTA (TE) lysis buffer (35 µl). Enzyme A solution (RNase; 5 µl) was added, followed by incubation at 37 °C for 10 min. Enzyme B solution (proteinase; 5 µl) was then added, followed by incubation at 50 °C for 30 min. Ammonium acetate solution (5 µl) and isopropanol (50 µl) were added to each sample and incubated at -20 °C for 10 min. Finally, the DNA was pelleted, washed with 0.5 ml 70% methanol, and dissolved in 30 µl DNA suspension buffer. The extracted DNA samples were loaded onto a 1.2% agarose gel, along with a loading marker (1 kb DNA ladder), and subjected to electrophoresis, using a running buffer containing 1.35 µg/ml ethidium bromide at 5 V/cm for 1 h. Ethidium bromide-stained DNA bands were visualized using transillumination with UV light.

[7] = tested on: SW837 cells; experiment: Cell cycle analysis by flow cytometry (PI); format: cell-based, human; details: 72 h
Method: as §2

[8] = tested on: SW837 cells; experiment: Annexin V-FITC/PI double staining, flow cytometry; format: cell-based, human; details: SW837, 72 h
Method: as §3

[9] = tested on: SW837 cells; experiment: DNA fragmentation assay; format: cell-based, human; details: Sora 5 µM, PPC 200 and 400 µM, sequential combinations, 72 h, Fig. 8B, D
Method: as §4

[10] = tested on: DLD-1 colon tumor model; design: method as in PMID 14692718; details: cited from earlier work
[11] = tested on: SW1116 and SW837 cells; experiment: Mitochondrial membrane potential (MMP) analysis, MitoNIR dye, flow cytometry; format: cell-based, human; details: Cur 400 µM alone; 72 h; cell line not stated
Method: The inner mitochondrial membrane is rich in negatively charged glycoproteins and is therefore negatively charged. The accumulation of high concentrations of protons outside of the inner membrane establishes the transmembrane potential. The MMP was monitored using the NIR Mitochondrial Membrane Potential Assay kit (Abcam) according to the manufacturer’s protocol. Briefly, cells (2.5 × 10^5 cells/well) were seeded into 24-well plates and incubated in a non-CO2 incubator at 37 °C for 18 h. […] MitoNIR Dye (200X; 5 µl/ml) was added to each sample, followed by incubation at 37 °C for 15–30 min. The cells were subsequently pelleted and resuspended in 1 ml assay buffer. Flow cytometry, in the FL4 channel (λExcitation/λEmission, 635/660 nm), was used to monitor the fluorescence intensity.

Structure (SMILES): CC1=C(CC(=O)O)c2cc(F)ccc2/C1=C\c1ccc([S+](C)[O-])cc1 (stereo not shown) [Sul, sulanidac]
cytotoxicity [1]: 38.94–98%

IC50 [2]: 160 µM
Structure (SMILES): O=c1c(O)c(-c2ccc(O)c(O)c2)oc2cc(O)cc(O)c12 [Que, quercetin]
cytotoxicity mean [3]: 19 ± 3%
%G0/G1 (cells in G0/G1 phase) ([4]; PPC 200 µM alone): 39.6%
%G2/M (cells in G2/M phase) ([4]; PPC 200 µM alone): 15.0%
%S (cells in S phase) ([4]; PPC 200 µM alone): 45.0%
%G0/G1 (cells in G0/G1 phase) ([4]; PPC 400 µM alone): 38.5%
%G2/M (cells in G2/M phase) ([4]; PPC 400 µM alone): 14.1%
%S (cells in S phase) ([4]; PPC 400 µM alone): 47.2%
%SubG1 (cells in sub G1) ([4]; PPC 400 µM alone): 8.4%
B1, percentage of necrotic cells ([5]; PPC 200 µM alone): 4.5%
B2, percentage of late apoptotic cells ([5]; PPC 200 µM alone): 24.5%
B4, percentage of early apoptotic cells ([5]; PPC 200 µM alone): 4.2%
B1, percentage of necrotic cells ([5]; PPC 400 µM alone): 31.1%
B2, percentage of late apoptotic cells ([5]; PPC 400 µM alone): 34.1%
B4, percentage of early apoptotic cells ([5]; PPC 400 µM alone): 0.8%
induction of apoptosis as indicated by DNA fragmentation [6]: marked induction of apoptosis
cytotoxicity [1]: 0.0–16.2%
cytotoxicity ([1]; listed as quercetin): ≤ 20%

IC50 [2]: 100 µM
Structure (SMILES): O=c1c(O)c(-c2ccc(O)cc2)oc2cc(O)cc(O)c12 [Kmf, kaempferol]
cytotoxicity mean [3]: 21 ± 3.5%
%G0/G1 (cells in G0/G1 phase) ([7]; PPC 200 µM alone): 60.4%
%G2/M (cells in G2/M phase) ([7]; PPC 200 µM alone): 5.9%
%S (cells in S phase) ([7]; PPC 200 µM alone): 33.6%
%SubG1 (cells in sub G1) ([7]; PPC 200 µM alone): 1.3%
%G0/G1 (cells in G0/G1 phase) ([7]; PPC 400 µM alone): 59.9%
%G2/M (cells in G2/M phase) ([7]; PPC 400 µM alone): 6.3%
%S (cells in S phase) ([7]; PPC 400 µM alone): 33.6%
%SubG1 (cells in sub G1) ([7]; PPC 400 µM alone): 2.7%
B1, percentage of necrotic cells ([8]; PPC 200 µM alone): 4.9%
B2, percentage of late apoptotic cells ([8]; PPC 200 µM alone): 20.5%
B4, percentage of early apoptotic cells ([8]; PPC 200 µM alone): 2.5%
B1, percentage of necrotic cells ([8]; PPC 400 µM alone): 36.8%
B2, percentage of late apoptotic cells ([8]; PPC 400 µM alone): 44.4%
B4, percentage of early apoptotic cells ([8]; PPC 400 µM alone): 2.8%
DNA fragmentation [9]: increased levels of DNA fragmentation
cytotoxicity [1]: 0.0–1.1%
cytotoxicity ([1]; listed as kaempferol): ≤ 20%

Structure (SMILES): CCc1c2c(nc3ccc(OC(=O)N4CCC(N5CCCCC5)CC4)cc13)-c1cc3c(c(=O)n1C2)COC(=O)[C@]3(O)CC [Irt, irinotecan]
delay of tumor cell growth [10]: 71%
cytotoxicity [1]: 44.9–81.9%

Structure (SMILES): O=c1ccc2ccccc2o1 [Cmr, coumarin]
cytotoxicity [1]: 7.4–11.34%

IC50 [2]: 60 µM
IC50 [3]: 150 µM
Structure (SMILES): COc1cc(/C=C/C(=O)CC(=O)/C=C/c2ccc(O)c(OC)c2)ccc1O [Cur, curcumin]
%G0/G1 (cells in G0/G1 phase) ([4]; PPC 200 µM alone): 49.1%
%G2/M (cells in G2/M phase) ([4]; PPC 200 µM alone): 13.6%
%S (cells in S phase) ([4]; PPC 200 µM alone): 37.1%
%G0/G1 (cells in G0/G1 phase) ([4]; PPC 400 µM alone): 28.5%
%G2/M (cells in G2/M phase) ([4]; PPC 400 µM alone): 11.3%
%S (cells in S phase) ([4]; PPC 400 µM alone): 60%
%SubG1 (cells in sub G1) ([4]; PPC 400 µM alone): 12%
%G0/G1 (cells in G0/G1 phase) ([7]; PPC 200 µM alone): 49.1%
%G2/M (cells in G2/M phase) ([7]; PPC 200 µM alone): 6.2%
%S (cells in S phase) ([7]; PPC 200 µM alone): 44.6%
%SubG1 (cells in sub G1) ([7]; PPC 200 µM alone): 14.7%
%G0/G1 (cells in G0/G1 phase) ([7]; PPC 400 µM alone): 58.1%
%G2/M (cells in G2/M phase) ([7]; PPC 400 µM alone): 2.4%
%S (cells in S phase) ([7]; PPC 400 µM alone): 39.4%
%SubG1 (cells in sub G1) ([7]; PPC 400 µM alone): 2.9%
B1, percentage of necrotic cells ([5]; PPC 200 µM alone): 5.9%
B2, percentage of late apoptotic cells ([5]; PPC 200 µM alone): 11.5%
B4, percentage of early apoptotic cells ([5]; PPC 200 µM alone): 4.6%
B1, percentage of necrotic cells ([5]; PPC 400 µM alone): 18.2%
B2, percentage of late apoptotic cells ([5]; PPC 400 µM alone): 35.2%
B4, percentage of early apoptotic cells ([5]; PPC 400 µM alone): 3.8%
B1, percentage of necrotic cells ([8]; PPC 200 µM alone): 60.9%
B2, percentage of late apoptotic cells ([8]; PPC 200 µM alone): 26.6%
B4, percentage of early apoptotic cells ([8]; PPC 200 µM alone): 0.3%
B1, percentage of necrotic cells ([8]; PPC 400 µM alone): 67.9%
B2, percentage of late apoptotic cells ([8]; PPC 400 µM alone): 32.3%
B4, percentage of early apoptotic cells ([8]; PPC 400 µM alone): 0.0%
induction of apoptosis as indicated by DNA fragmentation [6]: marked induction of apoptosis
DNA fragmentation [9]: increased levels of DNA fragmentation
change in MMP (shift of MitoNIR red fluorescence) [11]: no change in MMP
cytotoxicity [1]: 0.0%
cytotoxicity ([1]; listed as curcumin): ≤ 20%

Structure (SMILES): COC(=O)C[C@](O)(CCCC(C)(C)O)C(=O)O[C@@H]1C(OC)=C[C@]23CCCN2CCc2cc4c(cc2[C@H]13)OCO4 [HHG, homoharringtonine]
cytotoxicity [1]: 99–100%

Structure (SMILES): C=C(C)[C@@H]1CC[C@]2(C(=O)O)CC[C@]3(C)[C@H](CC[C@@H]4[C@@]5(C)CC[C@H](O)C(C)(C)[C@@H]5CC[C@]43C)[C@@H]12 [BetA, betulinic acid]
cytotoxicity [1]: 69–97.5%

Structure (SMILES): OCc1c[nH]c2ccccc12 [I3C, indol-3-carbinol]
cytotoxicity [1]: 0.2–9.2%

IC50 [2]: 70 µM
IC50 [3]: 140 µM
Structure (SMILES): Oc1ccc(/C=C/c2cc(O)cc(O)c2)cc1 [Rsv, resveratrol]
cytotoxicity [1]: 0.0–3.3%
cytotoxicity ([1]; listed as resveratrol): ≤ 20%

Structure (SMILES): CC(C)=CCC/C(C)=C/C=C/C(C)=C/C=C/C(C)=C/C=C/C=C(C)/C=C/C=C(C)/C=C/C=C(\C)CCC=C(C)C [Lyp, lycopene]
cytotoxicity [1]: 39.7–66.6%

Structure (SMILES): COc1cc(C2Oc3cc([C@H]4Oc5cc(O)cc(O)c5C(=O)[C@@H]4O)ccc3OC2CO)ccc1O (stereo partly shown) [Sin, silibinin]
cytotoxicity [1]: 0.0–5.54%

Structure (SMILES): COc1ccc([C@@H]2CC(=O)c3c(O)cc(O)cc3O2)cc1O [Hsp, hesperetin]
cytotoxicity [1]: 0.0–4.4%
